Data: BigSolDB 2.1

CC(=O)N(CC(O)CO)c1c(I)c(C(=O)NCC(O)CO)c(I)c(C(=O)NCC(O)CO)c1I (stereo not given)
solubility (mole fraction)
Details | 283.15 K | 288.15 K | 293.15 K | 298.15 K | 303.15 K | 308.15 K | 313.15 K | 318.15 K | 323.15 K
in 1,4-dioxane | – | 5.7e-05 | 6.9e-05 | 8.3e-05 | 0.0001 | 0.000121 | 0.000145 | 0.000174 | 0.000208
in 2-butanone | 0.000148 | 0.000178 | 0.000211 | 0.000255 | 0.000301 | 0.000358 | 0.000425 | 0.00049 | 0.000566
in DMSO | – | – | 0.000293 | 0.000357 | 0.000428 | 0.00051 | 0.000624 | 0.000737 | 0.000869
in acetone | 0.000174 | 0.000209 | 0.000256 | 0.000308 | 0.000371 | 0.000443 | 0.000526 | 0.00062 | 0.000741
in acetonitrile | 8.47e-05 | 0.000101 | 0.000123 | 0.000146 | 0.000175 | 0.00021 | 0.00025 | 0.000298 | 0.000354
in cyclohexane | 9.38e-06 | 1.22e-05 | 1.55e-05 | 2e-05 | 2.51e-05 | 3.14e-05 | 3.89e-05 | 4.81e-05 | 5.96e-05
in ethanol | 0.00113 | 0.0013 | 0.00148 | 0.00169 | 0.00192 | 0.00217 | 0.00244 | 0.00274 | 0.00306
in ethyl acetate | 0.000126 | 0.00015 | 0.00018 | 0.000215 | 0.000256 | 0.000301 | 0.000355 | 0.000414 | 0.000481
in isopropanol | 0.000389 | 0.000456 | 0.000555 | 0.000674 | 0.000806 | 0.000966 | 0.00115 | 0.00137 | 0.00165
in n-butanol | 0.000235 | 0.000287 | 0.000342 | 0.000416 | 0.0005 | 0.000601 | 0.000723 | 0.000866 | 0.00103
in n-propanol | 0.000715 | 0.000804 | 0.000911 | 0.00104 | 0.00119 | 0.00137 | 0.00156 | 0.00181 | 0.0021
in toluene | 2.5e-05 | 3.22e-05 | 4.06e-05 | 5.12e-05 | 6.28e-05 | 7.57e-05 | 9.19e-05 | 0.000112 | 0.000134
